From patent publication US10975056B2 (GlaxoSmithKline Intellectual Property Development Limited, priority 2016, dated 2021)
Where “and” joins values, the source holds several entries; their conditions need not be identical. Equal values may be shown once. Where a name gives a salt, the structure may show the parent alone. Read-outs that look alike come from different tables or passages of the source.

Legend:
[1] = tested on: erythroid progenitor cells (EPCs); experiment: Fetal hemoglobin (HbF) ELISA in day 7 erythroid progenitor cells; format: cell-based, human; settings: Homo sapiens, Erythroid progenitor cell, HbF ELISA, day 7 EPCs, 5 days; read-out: EPC ELISA (pEC50 category) (converted)
Method: Day 7 EPCs were cultured in duplicate plates with serially diluted Compound A for 5 days at 37° C. Wells were then analyzed for either induction of fetal hemoglobin (HbF,HbF ELISA) or cell growth (Cell Titer-Glo). In both cases, signal was normalized to vehicle-control treated cells.
Culture, Expansion, and Characterization of Day 7 Erythroid Progenitor Cells (EPC)s
All donors provided written informed consent for use of their samples, and the collection and use of the samples received institutional review board approval. All cryopreserved human bone marrow CD34+ cells used here were obtained from AlICells (Emeryville, Calif.) and were generally from different donors. The CD34+ cells were cultured to generate EPCs at day 7. Briefly, 1 million cells were cultured in 5% CO2, 5% O2 at 37° C. in H3000 Stemspan media (StemCell Technologies Vancouver, BC, Canada) supplemented with 2 mM L-glutamine, 40 μg/mL human low-density lipoproteins (StemCell Technologies), 10 ng/mL recombinant human (rh) interleukin IL-3 (R&D Systems, Minneapolis, Minn.), 100 ng/mL rh stem cell factor (R&D Systems), and 0.5 U/mL rh erythropoietin (Invitrogen, Grand Island, N.Y.). Cells were split and refed on day 4 with complete culture media described above and harvested on day 7 for evaluation of erythroid marker expression and assessment of γ-globin induction. Day 7 EPCs were then frozen in liquid nitrogen at 5 to 10 million cells/mL in 95% fetal bovine serum (FBS; Invitrogen) with 5% DMSO for subsequent use.
At the time of compound treatment, frozen day 7 EPCs prepared as described above were thawed, washed once and re-suspended in complete culture media as described above with the exception of an increase of rhEPO to 3 U/mL. Cells were counted and diluted to […] for plating into assay plates. Cells were then dispensed, at 30 μL per well with Multidrop™ Combi Reagent Dispenser (Thermo Scientific), into 384-well cell culture plates into which test compounds were pre-dispensed at 100 nL/well. Black Clear Bottom (Greiner Bio-One; 781090) and White (Greiner Bio-One; 781080) plates were used for ELISA and Cell Titer-Glo assays, respectively. The final cell density in the assays is 1,000 cells per well, with final compound concentrations between 33 nM (highest) and […] (lowest) for the 22-points serial dilution.
Fetal Hemoglobin (HbF) ELISA
Coating anti-HbF Ab (Bethyl Lab; cat. A80-136A) was diluted by 100-fold in the coating buffer (0.05 M carbonate-bicarbonate, pH 9.6), and then 20 μL/well was added to a 384-well MaxiSorp ELISA plate (Thermo Fisher; cat. 464718). After 1 hour incubation at room temperature, the plates were washed twice with ELISA washing buffer (50 mM Tris, 0.05% Tween 20, pH 8.0) with an EL406 plate washer (BioTek, Winooski, Vt.). Then, 40 μL/well of blocking buffer consisting of 50 mM Tris and 1% BSA (pH 8.0) was added to the plate and stored at 4° C. with cover sheet overnight, or until time of the assay. The coated ELISA plates were stable for up to 30 days at 4° C. On the day of assay, the plates were washed twice with ELISA washing buffer prior to addition of cell lysate.
After 5 days at 37° C. with 5% CO2 cell culture plates for ELISA assay were put into −80° C. freezer for a minimum of 2 hours. After thawing at room temperature, 30 μL of cell lysis buffer (Invitrogen; cat. FNN0011, supplemented with 1× protease inhibitor) was added to each well and the resulting cell lysate was mixed eight times with a Cybi-Well (Jena, Germany) pipettor. Following the mixing procedure, 20 μL/well of lysate was transferred to the coated ELISA plates described above followed by a 1 hour incubation at room temperature. The ELISA assay plates were washed three times with ELISA wash buffer. 20 μL per well of 1:75,000 to 100,000 diluted horseradish peroxidase (HRP) conjugate detection antiHbF Ab (Bethyl Labs; cat. A80-136P, diluted in 50 mM Tris [pH 8.0], 1% BSA, 0.05% Tween-20) was then added. […]

DNMT1 = DNMT1 (Homo sapiens, UniProt P26358); experiment: DNMT1 biochemical activity, breaklight assay and/or SPA assay
Sequence of DNMT1 (P26358 whole entry, looked up): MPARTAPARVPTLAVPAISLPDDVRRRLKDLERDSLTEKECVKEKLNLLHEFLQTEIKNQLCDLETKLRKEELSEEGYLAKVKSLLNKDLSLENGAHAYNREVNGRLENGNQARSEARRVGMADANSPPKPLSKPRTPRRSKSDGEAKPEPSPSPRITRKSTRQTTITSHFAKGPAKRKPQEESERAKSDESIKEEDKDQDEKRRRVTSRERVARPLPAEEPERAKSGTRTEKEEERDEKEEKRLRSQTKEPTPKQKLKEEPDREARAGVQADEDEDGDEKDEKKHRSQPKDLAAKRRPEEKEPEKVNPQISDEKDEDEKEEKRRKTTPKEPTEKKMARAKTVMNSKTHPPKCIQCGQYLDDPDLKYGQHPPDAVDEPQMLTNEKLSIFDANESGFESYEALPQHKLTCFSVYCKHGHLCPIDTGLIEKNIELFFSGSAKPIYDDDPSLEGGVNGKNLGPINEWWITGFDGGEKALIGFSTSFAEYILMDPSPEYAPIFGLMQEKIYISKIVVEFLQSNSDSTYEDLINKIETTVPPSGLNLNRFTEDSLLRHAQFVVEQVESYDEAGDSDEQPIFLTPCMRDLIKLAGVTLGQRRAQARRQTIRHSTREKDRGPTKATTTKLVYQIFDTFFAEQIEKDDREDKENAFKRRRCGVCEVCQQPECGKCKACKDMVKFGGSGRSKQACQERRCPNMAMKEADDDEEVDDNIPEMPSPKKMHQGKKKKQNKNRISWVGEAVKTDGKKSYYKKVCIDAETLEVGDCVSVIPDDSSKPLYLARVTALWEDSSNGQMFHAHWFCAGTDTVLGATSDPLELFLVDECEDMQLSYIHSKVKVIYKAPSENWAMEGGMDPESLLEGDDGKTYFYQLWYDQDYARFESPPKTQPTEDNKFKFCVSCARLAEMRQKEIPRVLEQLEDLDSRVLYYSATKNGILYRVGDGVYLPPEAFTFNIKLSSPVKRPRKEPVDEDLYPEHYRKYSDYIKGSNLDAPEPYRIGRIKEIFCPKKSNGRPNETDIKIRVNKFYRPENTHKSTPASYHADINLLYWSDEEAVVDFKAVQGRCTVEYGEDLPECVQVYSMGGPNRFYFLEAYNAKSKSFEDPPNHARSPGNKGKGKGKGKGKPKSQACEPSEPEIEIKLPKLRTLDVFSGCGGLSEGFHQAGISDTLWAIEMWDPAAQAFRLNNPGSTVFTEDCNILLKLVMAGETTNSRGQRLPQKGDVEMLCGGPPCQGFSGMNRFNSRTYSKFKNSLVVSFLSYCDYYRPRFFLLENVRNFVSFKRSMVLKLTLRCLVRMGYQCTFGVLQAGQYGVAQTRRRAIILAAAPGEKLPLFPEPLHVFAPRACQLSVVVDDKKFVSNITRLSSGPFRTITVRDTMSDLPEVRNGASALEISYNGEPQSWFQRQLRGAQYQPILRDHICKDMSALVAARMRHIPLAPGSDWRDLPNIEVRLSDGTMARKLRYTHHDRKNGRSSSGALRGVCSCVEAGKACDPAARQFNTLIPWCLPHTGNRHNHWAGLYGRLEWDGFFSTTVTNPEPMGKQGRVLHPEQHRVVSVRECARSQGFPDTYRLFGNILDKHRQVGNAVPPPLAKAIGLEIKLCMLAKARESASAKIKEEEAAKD

[2] = binned activity in either the breaklight or the SPA assay
[3] = binned activity in either the breaklight or the SPA assay, read-out: DNMT1 BioChemical (pIC50 category) (converted)
[4] = breaklight assay and/or SPA assay, repeated experimental runs, read-out: average pIC50 against DNMT1 (converted)

SMILES	EC50 [1] [µM]	DNMT1 BioChemical (pIC50 category) (DNMT1; [2])	IC50 (DNMT1; [3]) [µM]	IC50 (DNMT1; [4])	average pIC50 against DNMT1 (DNMT1; breaklight assay and/or SPA assay, repeated experimental runs)	IC50 (DNMT1; DNMT1 BioChemical (pIC50 category), binned activity in either the breaklight or the SPA assay) [µM]
CN(C)C1CCN(c2nc(SC(C(N)=O)c3ccccc3)c(C#N)c(C3CC3)c2C#N)CC1 (stereo not shown) [Example 29, 2-((3,5-dicyano-4-cyclopropyl-6-(4-(dimethylamino)piperidin-1-yl)pyridin-2-yl)thio)-2-phenylacetamide]	< 0.316	D (Category D: ≥6.5)	–	–	–	–
N#Cc1c(SC(C(N)=O)c2ccncc2)nc(N2CCNCC2)c(C#N)c1C1CC1 (stereo not shown) [Example 30, 2-((3,5-dicyano-4-cyclopropyl-6-(piperazin-1-yl)pyridin-2-yl)thio)-2-(pyridin-4-yl)acetamide]	> 31.6	–	0.316 to 1	–	–	–
N#Cc1c(SC(C(N)=O)c2ccccc2)nc(N2CCC[C@@H](O)C2)c(C#N)c1C1CC1 (stereo partly drawn) [Example 32, 2-((3,5-dicyano-4-cyclopropyl-6-((R)-3-hydroxypiperidin-1-yl)pyridin-2-yl)thio)-2-phenylacetamide]	1 to 31.6	D (Category D: ≥6.5)	–	–	–	–
N#Cc1c(SC(C(N)=O)c2ccccc2)nc(N2CCC[C@H](O)C2)c(C#N)c1C1CC1 (stereo partly drawn) [Example 33, 2-(3,5-dicyano-4-cyclopropyl-6-((S)-3-hydroxypiperidin-1-yl)pyridin-2-ylthio)-2-phenylacetamide]	0.316 to 1	–	0.316 to 1	–	–	–
N#Cc1c(SC(C(N)=O)c2ccccc2)nc(N2CCC(CN3CCCC3)CC2)c(C#N)c1C1CC1 (stereo not shown) [Example 39, 2-((3,5-Dicyano-4-cyclopropyl-6-(4-(pyrrolidin-1-ylmethyl)piperidin-1-yl)pyridin-2-yl)thio)-2-phenylacetamide]	< 0.316	D (Category D: ≥6.5)	–	–	–	–
CCc1c(C#N)c(SC(C(N)=O)c2ccccc2)nc(N2CC(OC)C2)c1C#N (stereo not shown) [Example 54, 2-((3,5-Dicyano-4-ethyl-6-(3-methoxyazetidin-1-yl)pyridin-2-yl)thio)-2-phenylacetamide]	1 to 31.6	–	0.316 to 1	–	–	–
CCc1c(C#N)c(SC(C(N)=O)c2ccccc2)nc(N(C)C2CC3CCC(C2)N3)c1C#N (stereo not shown) [Example 62, 2-((6-(8-azabicyclo[3.2.1]octan-3-yl(methyl)amino)-3,5-dicyano-4-ethylpyridin-2-yl)thio)-2-phenylacetamide]	0.316 to 1	–	–	–	–	0.316 to 1
CCc1c(C#N)c(S[C@@H](C(N)=O)c2ccccc2)nc(N2CCOCC2)c1C#N [Example 65, (R)-2-[(3,5-Dicyano-4-ethyl-6-morpholino-2-pyridyl)sulfanyl]-2-phenyl-acetamide]	1 to 31.6	–	0.316 to 1	–	–	–
CCc1c(C#N)c(SCc2ccc(CNC(C)=O)cc2)nc(N2CCC(N3CCCC3)CC2)c1C#N [Example 66, N-(4-((3,5-Dicyano-4-ethyl-6-(4-(pyrrolidin-1-yl)piperidin-1-yl)pyridin-2-ylthio)methyl)benzyl)acetamide trifluoroacetate]	< 0.316	D (Category D: ≥6.5)	–	–	–	–
CCc1c(C#N)c(SC(C(N)=O)c2ccccc2)nc(N2CCNC(C)CC2)c1C#N (stereo not shown) [Example 67, 2-{[3,5-dicyano-4-ethyl-6-(5-methyl-1,4-diazepan-1-yl)pyridin-2-yl]sulfanyl}-2-phenylacetamide]	< 0.316	D (Category D: ≥6.5)	–	–	–	–
CCc1c(C#N)c(SCc2ccc(CN)cc2)nc(N2CCC(N3CCCC3)CC2)c1C#N [Example 68, 2-(4-(Aminomethyl)benzylthio)-4-ethyl-6-(4-(pyrrolidin-1-yl)piperidin-1-yl)pyridine-3,5-dicarbonitrile 2,2,2-trifluoroacetate]	> 31.6	–	0.316 to 1	–	–	–

More lines, main results first:

EC50 [1] [µM]	DNMT1 BioChemical (pIC50 category) (DNMT1; [2])	IC50 (DNMT1; [3]) [µM]	IC50 (DNMT1; [4])	average pIC50 against DNMT1 (DNMT1; breaklight assay and/or SPA assay, repeated experimental runs)	SMILES	IC50 (DNMT1; DNMT1 BioChemical (pIC50 category), binned activity in either the breaklight or the SPA assay) [µM]
> 31.6	–	1 to 31.6	≥ 1 µM	–	CCc1c(C#N)c(SCc2ccc(CNC(=O)OC(C)(C)C)cc2)nc(N2CCCN(C)CC2)c1C#N [Example 69, tert-Butyl 4-(((3,5-dicyano-4-ethyl-6-(4-methyl-1,4-diazepan-1-yl)pyridin-2-yl)thio)methyl)benzylcarbamate]	–
0.316 to 1	–	0.316 to 1	0.316 to 1 µM	–	CCc1c(C#N)c(SCc2ccc(C(N)=O)cc2)nc(N2CCCN(C)CC2)c1C#N [Example 70, 4-(((3,5-Dicyano-4-ethyl-6-(4-methyl-1,4-diazepan-1-yl)pyridin-2-yl)thio)methyl)benzamide]	–
> 31.6	D (Category D: ≥6.5)	–	–	–	CCc1c(C#N)c(SCc2ccc(CN)cc2)nc(N2CCCN(C)CC2)c1C#N [Example 71, 2-((4-(Aminomethyl)benzyl)thio)-4-ethyl-6-(4-methyl-1,4-diazepan-1-yl)pyridine-3,5-dicarbonitrile, 2Hydrochloride]	–
> 31.6	–	1 to 31.6	≥ 1 µM and 2 µM	–	CCc1c(C#N)c(SCc2ccc(CC(=O)O)cc2)nc(N2CCCN(C)CC2)c1C#N [Example 72, 2-(4-(((3,5-Dicyano-4-ethyl-6-(4-methyl-1,4-diazepan-1-yl)pyridin-2-yl)thio)methyl)phenyl)acetic acid]	–
> 31.6	–	0.316 to 1	–	–	CCc1c(C#N)c(SCc2ccc(C(=O)O)cc2)nc(N2CCCN(C)CC2)c1C#N [Example 73, 4-(((3,5-Dicyano-4-ethyl-6-(4-methyl-1,4-diazepan-1-yl)pyridin-2-yl)thio)methyl)benzoic acid]	–
> 31.6	–	0.316 to 1	–	–	CCc1c(C#N)c(SCc2csc(NC(C)=O)n2)nc(N2CCCN(C)CC2)c1C#N [Example 75, N-(4-(((3,5-Dicyano-4-ethyl-6-(4-methyl-1,4-diazepan-1-yl)pyridin-2-yl)thio)methyl)thiazol-2-yl)acetamide]	–
> 31.6	–	0.316 to 1	≥ 1 µM	–	CCc1c(C#N)c(SCc2ccc(CNC(=O)CNC(=O)OC(C)(C)C)cc2)nc(N2CCCN(C)CC2)c1C#N [Example 78, tert-Butyl (2-((4-(((3,5-dicyano-4-ethyl-6-(4-methyl-1,4-diazepan-1-yl)pyridin-2-yl)thio)methyl)benzyl)amino)-2-oxoethyl)carbamate]	–
0.316 to 1	D (Category D: ≥6.5)	–	0.316 µM	–	CCc1c(C#N)c(SCc2ccc(CNS(C)(=O)=O)cc2)nc(N2CCCN(C)CC2)c1C#N [Example 79, N-(4-(((3,5-Dicyano-4-ethyl-6-(4-methyl-1,4-diazepan-1-yl)pyridin-2-yl)thio)methyl)benzyl)methanesulfonamide]	–
0.316 to 1	D (Category D: ≥6.5)	–	–	> 6.5	CCc1c(C#N)c(SCc2ccc(CNC(=O)CN)cc2)nc(N2CCCN(C)CC2)c1C#N [Example 80, 2-Amino-N-(4-(((3,5-dicyano-4-ethyl-6-(4-methyl-1,4-diazepan-1-yl)pyridin-2-yl)thio)methyl)benzyl)acetamide]	–
1 to 31.6	–	0.316 to 1	0.316 to 1 µM	–	CCc1c(C#N)c(SCc2ccc(COC(C)=O)cc2)nc(N2CCCN(C)CC2)c1C#N [Example 82, 4-(((3,5-Dicyano-4-ethyl-6-(4-methyl-1,4-diazepan-1-yl)pyridin-2-yl)thio)methyl)benzyl acetate]	–
